Results on ten molecules are retold here after publication PMC11582173, “Synthesis, cytotoxicity, anti-inflammatory, anti-metastatic and anti-oxidant activities of novel chalcones incorporating 2-phenoxy-N-arylacetamide and thiophene moieties: induction of apoptosis in MCF7 and HEP2 cells” (Naunyn-Schmiedeberg's Archives of Pharmacology, 2024).

In data set [1] the test system is MCF7. The arrangement: method as in Khairul et al. [2020]. Particulars: reported chalcone derivatives; ref Khairul et al. [2020]; cited from earlier work.
Data set [2] concerns human laryngeal carcinoma (HEP2) cells. Put plainly: SRB cytotoxic assay, HEP2. Particulars: HEp-2, 48 h; for inhibition at 100 µg/mL: single dose 100 µg/mL, read-out: %Inhibition at100 µg/mL HEP2. It counts as cell-based. As for the experimental part: (§1) All the prepared compounds were screened at a concentration of 100 µg/mL against six different human cell lines: human laryngeal carcinoma (HEP2), human colorectal carcinoma (HCT116), human breast carcinoma (MCF7), human Lung carcinoma (A549), human liver carcinoma (HEPG2), and normal African Green monkey kidney cell line (VERO). Doxorubicin was used as a positive control for comparison purposes.
(§2) The human laryngeal carcinoma (HEP2), colorectal carcinoma (HCT116), breast carcinoma (MCF7), Lung carcinoma (A549), liver carcinoma (HEPG2), and normal African Green monkey kidney cell line (VERO) were purchased from American Tissue Culture Collection (Rockville, MD, USA). The cells were treated for 48 h with a single dose (100 µg/mL) of all the tested chalcones. […] In brief, the cells were seeded in a 96-well microtiter plate at a concentration of 5×10^3 cells/well in 100 µL fresh RPMI-1640 medium and left to attach to the plates for 24 h. Then, cells were incubated with 100 μL of different concentrations (50, 25, 12.5, 6.25, and 0.0 µg/mL) of 5c in triplicate at 37 °C for 48 h. After that, the cells were fixed with 10 µL cold 100% Trichloroacetic acid (TCA) for 1h at 4 °C. The wells were then washed 1 time with distilled water using (automatic Tecan washer, Germany) and stained for 30 min at room temperature with 50 µL 0.4% SRB dissolved in 1% acetic acid. The plates were air-dried and the dye was solubilized with 100 µl/well of 1M tris base (pH 10.5) for 5 min. The optical density (O.D.) of each well was measured spectrophotometrically at 570 nm with an ELISA microplate reader (Sunrise Tecan reader, Germany) with automatic shaking for 30 seconds before reading. The mean background absorbance was subtracted automatically and mean values for each drug concentration were calculated. The percentage of cell survival was calculated as follows: Survival fraction= O.D. (treated cells)/ O.D. (control cells) (Bhat et al. [2023]).
On the technique in general: In SRB staining, fixed cells bind dye roughly in proportion to their protein.

Data set [3] concerns human colorectal carcinoma (HCT116) cells. The data set is described as follows: SRB cytotoxic assay, HCT116. The format is cell-based. Particulars: HCT-116, single dose 100 µg/mL, 48 h, read-out: %Inhibition at100 µg/mL HCT116. As for the experimental part: as §1, §2
Data set [4] concerns human breast carcinoma (MCF7) cells. The data set is described as follows: SRB cytotoxic assay, MCF7. The format is cell-based. Particulars: MCF7, 48 h; for inhibition at 100 µg/mL: single dose 100 µg/mL, read-out: %Inhibition at100 µg/mL MCF7. As for the experimental part: as §1, §2
Data set [5] concerns human Lung carcinoma (A549) cells. Put plainly: SRB cytotoxic assay, A549. The format is cell-based. The note with it: single dose 100 µg/mL, 48 h, read-out: %Inhibition at100 µg/mL A549. The procedure:
as §1, §2

For data set [6], the system named is human liver carcinoma (HEPG2) cells. The data set is described as follows: SRB cytotoxic assay, HEPG2. It counts as cell-based. The note with it: single dose 100 µg/mL, 48 h, read-out: %Inhibition at100 µg/mL HEPG2. As for the experimental part: as §1, §2
Data set [7] deals with normal African Green monkey kidney cell line (VERO). The data set is described as follows: SRB cytotoxic assay, VERO normal cells. It counts as cell-based. The note with it: Chlorocebus sabaeus, single dose 100 µg/mL, 48 h, read-out: %Inhibition at100 µg/mL VERO. As for the experimental part:
as §1, §2

Values after ≈ are worked out from the molar mass of the structure shown.

In the case of `CCCCCCOc1ccc(/C=C/C(=O)c2ccc(C#N)cc2)cc1` [(E)-1-(4-cyanophenyl)-3-(4-(hexyloxy)phenyl) prop-2-en-1-one], in data set [1], the “IC50 cytotoxic effect against MCF7” value was 13.75 µg/mL (≈ 41.2 µM).

Take `CCCCCCOc1ccc(/C=C/C(=O)c2ccc([N+](=O)[O-])cc2)cc1` [(E)-1-(4-nitrophenyl)-3-(4-(hexyloxy)phenyl) prop-2-en-1-one]: the “IC50 cytotoxic effect against MCF7” value in data set [1] is recorded as 14.75 µg/mL (≈ 41.7 µM).

As a reminder, the melting point is the temperature, or range, at which the solid turns liquid. `O=C(COc1ccc(C=CC(=O)c2cccs2)cc1)Nc1ccccc1` [Compound 5a, 2-(4-(3-Oxo-3-(thiophen-2-yl)prop-1-en-1-yl)phenoxy)-N-phenylacetamide] yielded a melting point of 194 to 196 °C. For the same molecule, the inhibition at 100 µg/mL in data set [2] came to 4.53 ± 0.08%. The inhibition at 100 µg/mL in data set [3] worked out at 5.18 ± 1.6%. In addition, in data set [4], the inhibition at 100 µg/mL was 33.7 ± 1.5%. Also, the inhibition at 100 µg/mL in data set [5] was 22 ± 1.4%. In data set [6], the inhibition at 100 µg/mL came to 30 ± 1.2%. Also, in data set [7], the inhibition at 100 µg/mL is 55 ± 3%.

Turning to `Cc1ccc(NC(=O)COc2ccc(C=CC(=O)c3cccs3)cc2)cc1` [Compound 5b, 2-(4-(3-Oxo-3-(thiophen-2-yl)prop-1-en-1-yl)phenoxy)-N-(p-tolyl)acetamide], the melting point was 202 to 204 °C. For the same molecule, the inhibition at 100 µg/mL in data set [2] amounted to 7.2 ± 1.4%. Also, the inhibition at 100 µg/mL in data set [3] came to 5.92 ± 1.2%. Also, the inhibition at 100 µg/mL in data set [4] was found to be 0.52 ± 2.1%. Besides, in data set [5], the inhibition at 100 µg/mL is 10.2 ± 2%. For the same molecule, in data set [6], the inhibition at 100 µg/mL worked out at 25 ± 1.9%. Moreover, the inhibition at 100 µg/mL in data set [7] was 60 ± 1%.

In turn, `O=C(COc1ccc(C=CC(=O)c2cccs2)cc1)Nc1ccc(Cl)cc1` [Compound 5d, N-(4-Chlorophenyl)-2-(4-(3-oxo-3-(thiophen-2-yl)prop-1-en-1-yl)phenoxy)acetamide] had a melting point of 198 to 200 °C. Moreover, in data set [2], the inhibition at 100 µg/mL was 0.36 ± 0.05%. The inhibition at 100 µg/mL in data set [3] was found to be 0.85 ± 1.1%. For the same molecule, the inhibition at 100 µg/mL in data set [4] is 40.09 ± 0.07%. Also, the inhibition at 100 µg/mL in data set [5] was 44.1 ± 1.3%. The inhibition at 100 µg/mL in data set [6] was determined as 45.2 ± 1.7%. The inhibition at 100 µg/mL in data set [7] turned out to be 80 ± 2%.

For orientation: IC50 means the concentration needed to halve the response being measured. As to `O=C(COc1ccc(C(=O)C=Cc2cccs2)cc1)Nc1ccccc1` [Compound 9a, N-Phenyl-2-(4-(3-(thiophen-2-yl)acryloyl)phenoxy)acetamide], the IC50 in data set [2] turned out to be 15.5 µg/mL (≈ 42.6 µM); in data set [4], 24.5 µg/mL (≈ 67.4 µM). In addition, the inhibition at 100 µg/mL in data set [2] is > 75%; in data set [3] it was 44.7 ± 1%; in data set [4], > 75%; in data set [5], 52 ± 2.7%; in data set [6], 64 ± 1.5%; in data set [7], 58 ± 1.4%.

With `Cc1ccc(NC(=O)COc2ccc(C(=O)C=Cc3cccs3)cc2)cc1` [Compound 9b, 2-(4-(3-(Thiophen-2-yl)acryloyl)phenoxy)-N-(p-tolyl)acetamide], the melting point fell in the range of 200 to 202 °C. The inhibition at 100 µg/mL in data set [2] amounted to 17.9 ± 1.3%. Moreover, the inhibition at 100 µg/mL in data set [3] amounted to 0.92 ± 1.7%. Also, in data set [4], the inhibition at 100 µg/mL amounted to 18.6 ± 0.05%. Besides, the inhibition at 100 µg/mL in data set [5] came to 33 ± 3.1%. The inhibition at 100 µg/mL in data set [6] is 26 ± 1.7%. Further, in data set [7], the inhibition at 100 µg/mL worked out at 15 ± 2.4%.

In the case of `COc1ccc(NC(=O)COc2ccc(C(=O)C=Cc3cccs3)cc2)cc1` [Compound 9c, N-(4-Methoxyphenyl)-2-(4-(3-(thiophen-2-yl)acryloyl)phenoxy)acetamide], the melting point was 205 to 207 °C. For the same molecule, the inhibition at 100 µg/mL in data set [2] came to 7.2 ± 1.7%. For the same molecule, in data set [3], the inhibition at 100 µg/mL worked out at 16.3 ± 1.9%. The inhibition at 100 µg/mL in data set [4] came out at 1.81 ± 1.3%. The inhibition at 100 µg/mL in data set [5] is < 10%. Besides, in data set [6], the inhibition at 100 µg/mL was < 10%. Moreover, the inhibition at 100 µg/mL in data set [7] was < 10%.

In turn, `O=C(COc1ccc(C(=O)C=Cc2cccs2)cc1)Nc1ccc(Cl)cc1` [Compound 9d, N-(4-Chlorophenyl)-2-(4-(3-(thiophen-2-yl)acryloyl)phenoxy)acetamide] had a melting point of 193 to 195 °C. Moreover, the inhibition at 100 µg/mL in data set [2] turned out to be 17.9 ± 2.3%. Besides, the inhibition at 100 µg/mL in data set [3] was 6.66 ± 3.3%. The inhibition at 100 µg/mL in data set [4] was found to be 2.28 ± 4.1%. Moreover, the inhibition at 100 µg/mL in data set [5] was < 10%. Moreover, the inhibition at 100 µg/mL in data set [6] was < 10%. For the same molecule, the inhibition at 100 µg/mL in data set [7] amounted to 10 ± 1%.

Regarding `COc1cccc2c1C(=O)c1c(O)c3c(c(O)c1C2=O)C[C@@](O)(C(=O)CO)C[C@@H]3O[C@H]1C[C@H](N)[C@H](O)[C@H](C)O1` [Doxorubicin, reference compound], the figures for the IC50 in data set [2] and in data set [4] were 11 µg/mL (≈ 20.2 µM) and 5.5 µg/mL (≈ 10.1 µM), respectively. For the same molecule, the inhibition at 100 µg/mL in data set [2] was 83.2 ± 1.1%; in data set [3], 71.5 ± 0.9%; in data set [4], 86.6 ± 1.6%; in data set [5] it was 77 ± 1.5%; in data set [6], 81 ± 2%; in data set [7], 45 ± 2%.
